Results published in patent publication US20190381017A1, “Compositions Comprising Serdexmethylphenidate Conjugates And Methods Of Use Thereof” (KemPharm, Inc., priority 2018, published 2019).
Structures can show the parent of a compound that is named as a salt. Marks after values point to notes of the source that are not given here.

How the values were obtained:
[1] = test system: healthy, nondependent, recreational stimulant users; assay: Oral abuse potential, VAS pharmacodynamic scores (Example 4); details: phentermine HCl 60 mg
[2] = test system: recreational stimulant users; assay: Intravenous abuse potential, VAS pharmacodynamic scores (Example 2); assay type: in vivo, human; details: SDX Cl 30 mg, d-MPH HCl 15 mg, bipolar VAS
Text: “Drug liking” score, used herein, is the score used to assess the degree that a human participant likes a drug effect at the time the question is being asked (that is, at the moment). It is scored using a 0 to 100 point bipolar visual analogue scale (VAS) anchored in the center with a neutral anchor of “neither like nor dislike” (score of 50), on the left with “strong disliking” (score of 0) and on the right with “strong liking” (score of 100).
“Euphoria” or “Feeling High” score, used herein, is the term to describe the score used to assess the degree that a human participant is high at the time the question is being asked (that is, at the moment). It is scored using a 0 to 100 point unipolar visual analogue scale (VAS) anchored on the left with “Not at All” (score of 0) and on the right with “Extremely” (score of 100).
“Take Drug Again” score, used herein, is the term to describe the score used to assess the degree that a human participant wants to take the drug again, if given the opportunity, based on his/her opinion now, i.e., at the time the question is being asked. It is scored using a 0 to 100 point unipolar visual analogue scale (VAS) anchored on the left with “Definitely Would Not” (score of 0) and on the right with “Definitely Would” (score of 100).
“Overall Drug Liking” score, used herein, is the term to describe the score used to assess the human subject's global perception of drug liking (i.e., the subjective effects over the whole course of the drug experience including any carryover effects). Subjects respond to the statement “Overall, my liking for this drug is.” The question is scored using a 0-100 point bipolar VAS anchored on the left with “Strong Disliking” (score of 0); “Neither Like nor Dislike” (score of 50) in the middle, and anchored on the right with “Strong Liking” (score of 100). This scale has the advantage of the human subject being relatively less affected or unaffected by acute study drug effects (if any) by the time of the assessment.
“Good Effects” score, used herein, is the term to describe the score used to assess the degree that a human participant is feeling good drug effects at the time the question is being asked (that is, at the moment). Subjects respond to the statement “At this moment, I can feel good drug effects.” It is scored using a 0 to 100 point unipolar visual analogue scale (VAS) anchored on the left with “Not at All” (score of 0) and on the right with “Extremely” (score of 100).
Safety assessments were performed throughout the study.

[3] = test system: recreational stimulant users; assay: Treatment-emergent adverse events, intravenous study (Example 2)
Method: A study was conducted in humans to assess the intravenous abuse potential of serdexmethylphenidate relative to unconjugated d-methylphenidate and placebo in recreational stimulant abusers. This was a Phase 1, randomized, double-blind study in which serdexmethylphenidate and d-methylphenidate were administered intravenously in recreational stimulant users with a history of non-oral abuse. In Part A of the study, subjects (Cohort 1) participated in a dose-escalation phase to determine the optimal dose of intravenous d-methylphenidate based on tolerability and abuse-related pharmacodynamic assessments. […] The doses of serdexmethylphenidate and d-methylphenidate are equivalent with respect to molar amount of d-methylphenidate. FDA-recommended abuse potential measures and blood samples were collected at different times after dosing. Safety assessments were performed throughout the study.

[4] = SDX Cl 120 mg, Focalin XR 80 mg
[5] = SDX Cl 120 mg, Focalin XR 80 mg, bipolar VAS
[6] = SDX Cl 120 mg, Focalin XR 80 mg, unipolar VAS

## CC(C)(N)Cc1ccccc1 [phentermine hydrochloride, reference compound]
[1]; Focalin XR 80 mg
  Mean difference Any Effects Emax vs SDX Cl 120 mg: 37.4
  Mean difference Any Effects Emax vs SDX Cl 240 mg: 28.0
  Mean difference Bad Effects Emax vs SDX Cl 120 mg: 11.9
  Mean difference Bad Effects Emax vs SDX Cl 240 mg: 4.6
  Mean difference Drug Liking Emax vs SDX Cl 120 mg: 15.5
  Mean difference Drug Liking Emax vs SDX Cl 240 mg: 14.0
  Mean difference Feeling Alert/Drowsy Emax vs SDX Cl 120 mg: 15.7
  Mean difference Feeling Alert/Drowsy Emax vs SDX Cl 240 mg: 12.2
  Mean difference Feeling High Emax vs SDX Cl 120 mg: 36.0
  Mean difference Feeling High Emax vs SDX Cl 240 mg: 27.7
  Mean difference Good Effects Emax vs SDX Cl 120 mg: 35.5
  Mean difference Good Effects Emax vs SDX Cl 240 mg: 30.2
  Mean difference Overall Drug Liking Emax vs SDX Cl 120 mg: 14.9
  Mean difference Overall Drug Liking Emax vs SDX Cl 240 mg: 15.3
  Mean difference Take Drug Again Emax vs SDX Cl 120 mg: 14.9
  Mean difference Take Drug Again Emax vs SDX Cl 240 mg: 15.4
[1]; [4]
  Mean difference Any Effects Emax vs placebo: 48.5
  Mean difference Drug Liking Emax vs placebo: 22.3
  Mean difference Feeling Alert/Drowsy Emax vs placebo: 23.5
  Mean difference Feeling High Emax vs placebo: 46.4
  Mean difference Good Effects Emax vs placebo: 47.6
  Mean difference Overall Drug Liking Emax vs placebo: 18.6
  Mean difference Take Drug Again Emax vs placebo: 17.1
[1]; [5]
  Drug Liking Emax (mean): 80.2
  Drug Liking Emax (median): 84.0
  Feeling Alert/Drowsy Emax (mean): 81.4
  Feeling Alert/Drowsy Emax (median): 84.0
  Overall Drug Liking Emax (mean): 73.4
  Overall Drug Liking Emax (median): 77.0
  Take Drug Again Emax (mean): 72.3
  Take Drug Again Emax (median): 75.0
[1]; [6]
  Any Effects Emax (mean): 69.2
  Any Effects Emax (median): 74.0
  Bad Effects Emax (mean): 17.9
  Bad Effects Emax (median): 7.0
  Feeling High Emax (mean): 65.3
  Feeling High Emax (median): 76.0
  Good Effects Emax (mean): 66.2
  Good Effects Emax (median): 75.0
[1]
  Median difference Bad Effects Emax vs placebo: 8.0^c

## COC(=O)[C@H](c1ccccc1)[C@H]1CCCCN1C(=O)OC[n+]1cccc(C(=O)N[C@@H](CO)C(=O)O)c1 [serdexmethylphenidate]
[2]
  Drug Liking Emax (mean): 56.6

## COC(=O)[C@H](c1ccccc1)[C@H]1CCCCN1 [d-methylphenidate, methyl (R)-2-phenyl-2-((R)-piperidin-2-yl)acetate, reference compound]
[3]
  typical stimulant-related Adverse Events (euphoric mood, hypervigilance, increased heart rate), frequency vs serdexmethylphenidate: more common
[2]
  Drug Liking Emax (mean): 84.3
